By IC50 is commonly meant the concentration that inhibits the measured activity by half.

Each structure is given as a SMILES string.

A short description of series [1]: ex vivo stability in mouse plasma. Type of series: in vitro ADME. The note with it: 100 μg/ml, room temperature, 0-180 min. The protocol: (§1) An ex vivo evaluation of drug stability was conducted in mouse and human plasma samples (WuXi AppTec, Shanghai, China). […] Samples were, thereafter, incubated at room temperature for 0, 15, 30, 60, 120, and 180 min before immediate drug extraction. […] Extraction was performed by adding ethyl acetate containing the internal standard (donepezil—known to undergo first-pass hepatic metabolism) to the spiked sample (100 μL), vortexed for 1 min, and centrifuged at 13,000 rpm, 4 °C for 10 min. The supernatant was used for LC–MS/MS analysis.
(§2) LC–MS/MS analysis was performed with a Vanquish Flex UHPLC (Thermo Scientific) and a Orbitrap Exploris 240 mass spectrometer (Thermo Scientific). Samples were separated on a C18 UHPLC column (100 mm × 2.1 mm, 3 μm; Thermo Scientific). The mobile phase A for LC separation was 0.1% formic acid and the mobile phase B was 0.1% formic acid in methanol. The chromatography gradient was designed for a linear increase from 5% B in 1 min, 5% B to 95% B in 8 min, 95% B in 3 min, and 5% B in 3 min. The flow rate was maintained at 0.3 mL/min. Mass spectra were acquired using the data-dependent Top 4 MS2 (ddMS2) method with a mass scan (100–1000 m/z) and 120,000 MS resolution.

Series [2] is described as follows: ex vivo stability in human plasma. Format: in vitro ADME. The note with it: 100 μg/ml, room temperature, 0-180 min. The protocol: as §1, §2
The conditions of series [3]: cited from earlier work.
Series [4] deals with p-glycoprotein. Details: method as in PMID 21825263. The note with it: cited from earlier work.
Series [5] relates to Aiolos. Briefly: Aiolos degradation, Western blot in MM.1S cells. The note with it: 4 h, 0.1 to 10 μM, Aiolos/GAPDH, read-out: IC50 to lower Aiolos protein expression. Format: cell-based, human. The protocol: (§3) This cell line was obtained from the Korean Cell Line Bank (catalog no. 30105; Seoul, Korea), grown in DMEM (supplemented with 10% FBS, penicillin 100 U/mL and streptomycin 100 μg/mL, and maintained at 37 °C and 5% CO2). […] These were grown in RPMI media supplemented with 10% FBS, penicillin 100 U/mL, and streptomycin […], and maintained at 37 °C and 5% CO2. MM.1S cells were treated with drug (0.1 to 10 μM) for 4 h, and their cell lysates were prepared for Western blot analysis, as described previously.
(§4) For Western blot analysis, total proteins were extracted using RIPA buffer (Thermo Fisher Scientific, Waltham, MA) containing Halt Protease Inhibitor Cocktail (Thermo Fisher Scientific). Thereafter, proteins were separated by gel electrophoresis and then transferred to polyvinylidene difluoride (PVDF) membranes (Thermo Fisher Scientific), as detailed previously. The following primary antibodies were used: (i) anti-SALL4 antibody (catalog no. ab29112; 1:1000; Abcam, UK); (ii) anti-Aiolos antibody (catalog no. 15103; 1:1000; Cell Signaling Technology, Danvers, MA, USA); and (iii) anti-GAPDH antibody (catalog no. ab8245; 1:5000; Abcam, Cambridge, UK). […] Antigen–antibody complexes were detected using enhanced chemiluminescence (Thermo Fisher Scientific, iBright CL1500).
In general terms: A western blot detects proteins with antibodies after separation by electrophoresis.

The test system of series [6] is SALL4. Briefly: SALL4 degradation, Western blot in Tera-1 cells. The following applies: 4 h, 0.1 to 10 μM, SALL4/GAPDH, read-out: IC50 to lower SALL4 protein expression. Type of series: cell-based, human. The protocol: as §3, §4

Regarding `Nc1cccc2c1C(=S)N(C1CCC(=S)NC1=O)C2=O` (stereo not drawn) [3,6′-DTP, 3,6′-dithiopomalidomide, reference compound], the “ex vivo stability in mouse plasma” value in series [1] is listed as “rapidly disappears”. Moreover, the “ex vivo stability in human plasma” value in series [2] was “rapidly disappears”.
Turning to `Nc1cccc2c1CN(C1CCC(=O)NC1=O)C2=O` (stereo not drawn) [Lenalidomide], the CSF/plasma ratio in series [3] was 0.11. In addition, the “substrate for the efflux transporter p-glycoprotein” value in series [4] is on record as “substrate”.
On to `Nc1cccc2c1C(=O)N(C1CCC(=O)NC1=O)C2=O` (stereo not drawn) [Pom, Pomalidomide], for which the IC50 is 60 nM in series [5] and 40 nM in series [6].

The values above are taken from paper PMC12172326 (Journal of Biomedical Science, 2025).
